Data on four molecules can be found in patent US10473574B2, “Assembly for assessing drug permeability with adjustable biomimetic properties” (Syddansk Universitet, priority 2014, dated 2019).

The nature of one series: in vitro. The procedure: A sheet of cellulose hydrate was prewashed in demineralized water. The sheet was put on a flat surface and sprayed with a 1% (M/M) solution of egg yolk lecithin (E-80, Lipoid GmbH, Ludwigshafen, Germany) in ethanol. […] Once the organic solvent was evaporated, two coated sheets were placed one upon the other, sandwiching the phospholipids.
Frantz cells with a permeation surface of 1 cm^2, a maximum volume in the upper compartment of 1.8 mL and a fixed volume in the bottom compartment of 8 mL were used.
The barrier was placed in between of the donor and the acceptor chamber, and a permeability experiment was performed at 25° C. […]
8 mL of phosphate buffer solution was placed into the lower compartment. The barrier was placed, and at time zero (start of the experiment) 1.5 mL of a 10 mM phosphate buffer solution of calcein was placed in the upper compartment. Every 60 minutes, 0.2 mL of the solution in the lower compartment were withdrawn and calcein concentration quantified by fluorescence spectroscopy. The removed volume was replaced with an equivalent amount of fresh buffer.
For all permeability studies, Franz diffusion cells with a surface area of 1 cm^2, upper chamber nominal volume of 2 mL and lower chamber volume of 8 mL were employed. The donor phase (upper chamber) was filled with 1.5 mL hydrophilic marker calcein (5 mM) and different surfactants and solvents, whereas the acceptor compartment (lower chamber) was filled with 8 mL PBS (7.4±0.05). The barrier was placed between the donor and acceptor compartment and the flux (3) of calcein was measured over time. The permeability studies were carried out over a 5 hours period, and samples of 200 μL were withdrawn from the acceptor chamber every 30 min for the first 2 hours and then every 60 min. The withdrawn sample volume was replaced with an equal amount of fresh PBS at each time point. […]

Series [1] in a line: Permeability of calcein through the empty barrier support (no lipid layer). The class given is in vitro ADME. As to conditions: pH 7.4, calcein 5 mM donor, PBS acceptor. From the text: It is visible that the permeation of calcein through the empty barrier support is much faster. Specifically, the permeability of calcein is approx. 10 times higher as compared to the barrier of the present invention.

For orientation: Papp means a coefficient for how fast a substance crosses the barrier.

Molecules are shown by their SMILES.

As to `Cn1c(=O)c2c(ncn2C)n(C)c1=O` [caffeine], the “permeability with FeSSIF as acceptor media versus other acceptor media” value in the series “in vitro” is given as “unchanged”.

`O=C(O)CN(CC(=O)O)Cc1cc2c(cc1O)Oc1cc(O)c(CN(CC(=O)O)CC(=O)O)cc1C21OC(=O)c2ccccc21` [calcein]: in the series “in vitro”, the “change of permeability with Polysorbat 80” value is given as “not increased, but decreased” and the “influence of lipid composition of the barrier on permeability” value (from here on “influence”) is recorded as “strong influence”. Moreover, in the series “in vitro” (5 h, 5 mM, pH 7.4), the “increase of permeability with 5% Cremophor relative to PBS” value was roughly 2 fold. For the same molecule, the Papp at 5 h, 5 mM in “in vitro” (pH 7.4, Papp in PBS) turned out to be 2.7 ± 0.5 ×10⁻⁶ cm/s. The molecule also returned an apparent permeability coefficient (Papp) in “in vitro” (pH 7.4, permeability coefficient (P)) of 1.2 ± 0.1 ×10⁻⁶ cm/s. Moreover, the apparent permeability (Papp) at 5 h, 5 mM in series [1] was 16.5 ± 1 ×10⁻⁶ cm/s.

As for `CC(C)Cc1ccc(C(C)C(=O)O)cc1` (stereo not drawn) [ibuprofen], the “influence” value in “in vitro” is recorded as “strong influence”.

For `CC(C)(C)NCC(O)COc1cccc2c1CC(O)C(O)C2` (stereo not drawn) [nadolol], the “influence” value in the series “in vitro” was “strong influence”.
